# Test results: article PMC4904373, “Azole Antifungal Sensitivity of Sterol 14α-Demethylase (CYP51) and CYP5218 from Malassezia globosa” (Scientific Reports, 2016)
# How the values were obtained:
# Candida maltosa CYP52A4 = tested on: Candida maltosa CYP52A4; set-up: method as in PMID 8645001; details: cited from earlier work
# M. globosa CYP5218 [1] = target: T1, M. globosa CYP5218 (Malassezia globosa, UniProt A8QCD3, A3L/A5L/F6A/I7V/S4L/S8F); details: 100 μM fatty acid, 1 hour to overnight (~16 h), three different cytochrome P450 reductase redox partners
# Procedure: The CYP5218 fatty acid reconstitution assay system used was based on that previously described by Guengerich[54] and contained 200 nM of CYP5218, 500 nM of cytochrome P450 reductase (A. fumigatus CPR1[52]) or H. sapiens CPR[55] or C. albicans CPR[56], 50 μM DLPC, 100 μM fatty acid (lauric acid, myristic acid, palmitic acid, palmitoleic acid, oleic acid and linoleic acid), 4 mM glucose-6-phosphate, 3 U/ml yeast glucose-6-phosphate dehydrogenase in a final volume of 500 μl with 0.1 M potassium phosphate (pH 7.4). Assay mixtures were incubated at 37 °C for 5 min prior to initiation with 4 mM β-NADPHNa4 and then incubated for a further 60 min or overnight (~16 h) at 37 °C. Fatty acid metabolites were recovered by extraction with dichloromethane and dried in a vacuum centrifuge. Samples were derivatized with 200 μl anhydrous pyridine and 250 μl BSTFA:TMCS (99:1) (30 min at 80 °C) and extracted with 500 μl of hexane, prior to analysis by GC/MS (Thermo GC Trace 1300 and ISQ MS). GC analysis was performed with a 5% phenyl methylpolysiloxane column (DB5) (Agilent Technologies). The oven programme was as follows: initial: 70 °C, with 3 min hold; ramp: 10 °C min^−1 to 180 °C (held for 2 min), 10 °C min^−1 to 250 °C (held for 2 min) and 10 °C min^−1 to 280 °C (held for 2 min). Data were analyzed using Thermo Xcalibur 2.2 software.
# M. globosa CYP5218 [2] = target: T1, M. globosa CYP5218; test: biochemical; assay type: binding; details: for binding spectra with CYP5218: result in words
# Procedure: Reduced carbon monoxide difference spectroscopy[46][47] and absolute spectra between 700 and 300 nm were used to determine cytochrome P450 concentrations. Substrate and azole binding studies were performed[31][48] using 2.5 mM stock sterol solutions in 40% (wt/vol) (2-hydroxypropyl)-β-cyclodextrin (HPCD), 4 mg ml^−1 solutions of fatty acids in dimethylformamide (DMF), and stock 0.05, 0.1 and 0.2 mg ml^−1 solutions of azole antifungal agents in dimethylsulfoxide (DMSO). Sterols were titrated against 5 μM CYP51, fatty acids were titrated against 4 μM CYP5218 and azole antifungal agents were titrated against 2 μM CYP51 and CYP5218. The absorbance difference spectrum between 500 and 350 nm was determined after each incremental addition of ligand with saturation curves constructed from ΔApeak-trough against ligand concentration. […] The dissociation constants of the enzyme-azole complex were determined by non-linear regression (Levenberg-Marquardt algorithm) using a rearrangement of the Morrison equation for tight ligand binding. ProFit 6.1.12 (QuantumSoft, Zurich, Switzerland) was used for curve-fitting data. All ligand-binding studies were performed at 22 ± 2 °C and in triplicate. All spectral determinations were made using a Hitachi U-3310 UV/VIS spectrophotometer (San Jose, California).
# M. globosa CYP51 [3] = target: T2, M. globosa CYP51 (Malassezia globosa, UniProt A8Q3I7, A7V/E4L/G6A/I5L/L2A/Q3L/W8F); test: biochemical; details: IC50, 0.5 μM CYP51, CYP51:AfCPR1 1:2, 50 μM lanosterol as substrate
# T2 sequence (A8Q3I7 whole entry L2A/Q3L/E4L/I5L/G6A/A7V/W8F): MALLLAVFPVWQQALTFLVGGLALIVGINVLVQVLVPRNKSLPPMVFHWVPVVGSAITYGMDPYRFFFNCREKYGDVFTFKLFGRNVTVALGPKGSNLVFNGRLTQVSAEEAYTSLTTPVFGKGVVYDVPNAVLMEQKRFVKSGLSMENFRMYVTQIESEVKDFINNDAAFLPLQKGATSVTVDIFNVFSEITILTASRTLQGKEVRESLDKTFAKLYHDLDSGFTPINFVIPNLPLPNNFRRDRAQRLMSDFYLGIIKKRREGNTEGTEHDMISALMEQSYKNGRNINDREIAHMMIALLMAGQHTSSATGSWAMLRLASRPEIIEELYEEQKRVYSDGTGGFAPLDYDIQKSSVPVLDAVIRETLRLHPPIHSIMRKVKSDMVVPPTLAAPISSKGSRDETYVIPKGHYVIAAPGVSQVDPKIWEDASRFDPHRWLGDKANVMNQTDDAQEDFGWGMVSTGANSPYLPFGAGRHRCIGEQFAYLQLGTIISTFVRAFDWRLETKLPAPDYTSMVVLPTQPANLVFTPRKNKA
# Procedure: (§1) Sterol metabolites were recovered by extraction with ethyl acetate followed by derivatization with 0.1 ml N,O-bis(trimethylsilyl)trifluoroacetamide (BSTFA) : trimethylchlorosilane (TMCS) (99:1) and 0.3 ml anhydrous pyridine (2 h at 80 °C) prior to analysis by gas chromatography mass spectrometry (GC/MS)[53].
# M. globosa ATCC MYA-4612 = test: M. globosa MIC100 determination; assay type: cell-based, Malassezia globosa; details: Malassezia globosa, 168 h; modified Dixon medium, 30 °C, 7 days; read-out: MIC100
# Procedure: M. globosa ATCC MYA-4612 was grown for 7 days at 30 °C in modified Dixon medium (3.6% malt extract, 2% desiccated ox-bile, 1% Tween 40, 0.6% peptone, 0.2% glycerol, 0.2% oleic acid, pH adjusted to 6 with HCl) until a culture density of 1.5 × 10^5 cells ml^−1 was obtained. Cells from 3 ml of stock culture were harvested, suspended in 1 ml of saline and used to inoculate 30 ml of fresh modified Dixon medium for use as M. globosa inoculums in MIC determinations. Stock azole concentrations of 1600, 800, 400, 200, 100, 50, 25, 12.5, 6.25, 3.125 and 0 μg ml^−1 were prepared in DMSO. These were diluted ten-fold with fresh modified Dixon media and 20 μl of the diluted azole solutions were then mixed with 180 μl of M. globosa inoculum in microtiter plate wells to yield final azole concentrations of 16, 8, 4, 2, 1, 0.5, 0.25, 0.125, 0.0625, 0.03125 and 0 μg ml^−1. The microtiter plates were incubated at 30 °C for 7 days and then read. Each azole MIC100 determination was performed in triplicate.
# M. globosa CYP5218 [4] = target: T1, M. globosa CYP5218; test: biochemical; assay type: binding
# Procedure: (§2) Reduced carbon monoxide difference spectroscopy[46][47] and absolute spectra between 700 and 300 nm were used to determine cytochrome P450 concentrations. Substrate and azole binding studies were performed[31][48] using 2.5 mM stock sterol solutions in 40% (wt/vol) (2-hydroxypropyl)-β-cyclodextrin (HPCD), 4 mg ml^−1 solutions of fatty acids in dimethylformamide (DMF), and stock 0.05, 0.1 and 0.2 mg ml^−1 solutions of azole antifungal agents in dimethylsulfoxide (DMSO). Sterols were titrated against 5 μM CYP51, fatty acids were titrated against 4 μM CYP5218 and azole antifungal agents were titrated against 2 μM CYP51 and CYP5218. The absorbance difference spectrum between 500 and 350 nm was determined after each incremental addition of ligand with saturation curves constructed from ΔApeak-trough against ligand concentration. The dissociation constants (Kd) for sterols and fatty acids were determined by non-linear regression (Levenberg-Marquardt algorithm) using the Michaelis-Menten equation. The dissociation constants of the enzyme-azole complex were determined by non-linear regression (Levenberg-Marquardt algorithm) using a rearrangement of the Morrison equation for tight ligand binding. ProFit 6.1.12 (QuantumSoft, Zurich, Switzerland) was used for curve-fitting data. All ligand-binding studies were performed at 22 ± 2 °C and in triplicate. All spectral determinations were made using a Hitachi U-3310 UV/VIS spectrophotometer (San Jose, California).
# M. globosa CYP51 [5] = target: T2, M. globosa CYP51; test: biochemical; assay type: binding
# Procedure: as §2
# M. globosa = test: Sterol analysis of azole-treated M. globosa; assay type: cell-based, Malassezia globosa; details: 0.125 μg ml^−1 ketoconazole
# Procedure: Individual sterols were identified by reference to relative retention times, mass ions and fragmentation patterns. Sterol composition was calculated using peak areas.
# M. globosa CYP51 [6] = target: T2, M. globosa CYP51; details: 0.5 μM CYP51, 50 μM sterol substrate
# Procedure: as §1
# [7] = CYP5218 Kd (μM) Eadie-Hofstee, 4 μM CYP5218, type I spectra, mean of three replicates with SD
# [8] = CYP5218 Kd (μM) Michaelis-Menten, 4 μM CYP5218, type I spectra, mean of three replicates with SD
# [9] = 4 μM CYP5218, type I spectra, mean of three replicates with SD
smiles,measurement,setting,value
"CCCCCCCCCCCC(=O)O [Lauric acid, lauric acid]",Kd,Candida maltosa CYP52A4,~110 µM
same,product formation in CYP5218 reconstitution assay,M. globosa CYP5218 [1],no observed product formation
same,Kd,M. globosa CYP5218 [2]; [7],136 ± 3 µM
same,Kd,M. globosa CYP5218 [2]; [8],136 ± 4 µM
"CCCCCCCCCCCCCCCCCC(=O)O [Stearic acid, stearic acid]",CYP5218 Kd (μM) Eadie-Hofstee,M. globosa CYP5218 [2]; [9],no fit ^a
same,CYP5218 Kd (μM) Michaelis-Menten,M. globosa CYP5218 [2]; [9],no fit ^a
CCCCCCCCCCCCCCCC [n-hexadecane],binding spectra with CYP5218,M. globosa CYP5218 [2],No binding spectra
CC(=O)N1CCN(c2ccc(OCC3COC(Cn4ccnc4)(c4ccc(Cl)cc4Cl)O3)cc2)CC1 (centres unmarked) [ketoconazole],IC50,M. globosa CYP51 [3],0.176 ± 0.016 µM
same,MIC,M. globosa ATCC MYA-4612,0.25 µg/mL
same,azole binding to CYP5218 (binding spectra),"M. globosa CYP5218 [4]; 2 μM CYP5218, result in words",type II binding spectra
same,Kd,"M. globosa CYP5218 [4]; Kd, azole titrated against 2 μM CYP5218",~1.6 µM
same,Kd,M. globosa CYP51 [5],0.002 ± 0.001 µM
same,"sterol fraction (%) 4,4-dimethylzymosterol",M. globosa,0%
same,sterol fraction (%) Eburicol,M. globosa,30.33%
same,sterol fraction (%) Episterol,M. globosa,0%
same,sterol fraction (%) Ergosta-7-enol,M. globosa,1.58%
same,"sterol fraction (%) Ergosta-8,22-dienol",M. globosa,1.89%
same,sterol fraction (%) Ergosta-8-enol,M. globosa,2.23%
same,sterol fraction (%) Ergosterol,M. globosa,51.50%
same,sterol fraction (%) Fecosterol,M. globosa,0.98%
same,sterol fraction (%) Obtusifoliol,M. globosa,0.18%
same,sterol fraction (%) Cholesterol,M. globosa; cholesterol assimilated from growth media,1.92%
"CCCCCCCCCCCCCC(=O)O [Myristic acid, myristic acid]",Kd,Candida maltosa CYP52A4,~120 µM
same,product formation in CYP5218 reconstitution assay,M. globosa CYP5218 [1],no observed product formation
same,Kd,M. globosa CYP5218 [2]; [7],245 ± 29 µM
same,Kd,M. globosa CYP5218 [2]; [8],195 ± 41 µM
"CCCCCC/C=C\CCCCCCCC(=O)O [Palmitoleic acid, palmitoleic acid]",product formation in CYP5218 reconstitution assay,M. globosa CYP5218 [1],no observed product formation
same,Kd,M. globosa CYP5218 [2]; [7],114 ± 5 µM
same,Kd,M. globosa CYP5218 [2]; [8],113 ± 7 µM
"CCCC/C=C\CCCCCCCC(=O)O [Myristoleic acid, myristoleic acid]",Kd,M. globosa CYP5218 [2]; [7],151 ± 8 µM
same,Kd,M. globosa CYP5218 [2]; [8],158 ± 20 µM
"CCCCCCCCCCCCCCCC(=O)O [Palmitic acid, palmitic acid]",product formation in CYP5218 reconstitution assay,M. globosa CYP5218 [1],no observed product formation
same,Kd,M. globosa CYP5218 [2]; [7],253 ± 77 µM
same,Kd,M. globosa CYP5218 [2]; [8],1020 ± 755 µM
"CCCCC/C=C\C/C=C\C/C=C\C/C=C\CCCC(=O)O [Arachidonic acid, arachidonic acid]",Kd,M. globosa CYP5218 [2]; [7],256 ± 36 µM
same,Kd,M. globosa CYP5218 [2]; [8],264 ± 34 µM
C=C(CC[C@@H](C)[C@H]1CC[C@@]2(C)C3=C(CC[C@]12C)[C@@]1(C)CC[C@H](O)[C@@H](C)[C@@H]1CC3)C(C)C [obtusifoliol],turnover number,M. globosa CYP51 [6],3.4 min⁻¹
same,Kd,M. globosa CYP51 [5],28 µM
CC(C)=CCC[C@@H](C)[C@H]1CC[C@@]2(C)C3=C(CC[C@]12C)[C@@]1(C)CC[C@H](O)C(C)(C)[C@@H]1CC3 [lanosterol],turnover number,M. globosa CYP51 [6],1.7 min⁻¹
same,Kd,M. globosa CYP51 [5],32 µM
same,binding spectra with CYP5218,M. globosa CYP5218 [2],failed to give reproducible binding spectra
